According to patent US20150038739A1, “METHOD FOR MANUFACTURING REFINED METHIONINE” (SUMITOMO CHEMICAL COMPANY, LIMITED, priority 2012, published 2015):

solubility of methionine in pure water (saturated solubility) (pure water, normal temperature and normal pressure): about 3.0 % by weight | saturated solubility of methionine in alkaline recovered wash water (under 2.0% by weight of concentration of potassium): about 5.0 % by weight
Structure (SMILES): CSCC[C@H](N)C(=O)O [methionine]
